Test results as given in publication PMC3726442 (PLoS ONE, 2013).

Key:
CYP3A4/5 = test system: CYP3A4/5; set-up: method as in PMID 19088019; conditions: major primary metabolite, CYP3A4/5-mediated; cited from earlier work
[1] = Plasma concentrations of tamoxifen and its metabolites in breast cancer patients on tamoxifen, by HPLC-tandem mass spectrometry
Description: One hundred and thirty five Caucasian patients of Spanish descent recently diagnosed with BC were recruited from the center Fundación Tejerina-Centro de Patología de la Mama (Madrid). Premenopausal and postmenopausal women were enrolled when started on TAM as standard adjuvant therapy after undergoing primary surgery, radiation and adjuvant chemotherapy. Patients were excluded if they had started TAM therapy simultaneously with either adjuvant chemotherapy or adjuvant radiation therapy (or both) or if they were undergoing other adjuvant endocrine therapies. Patients who were pregnant or breast-feeding were also excluded from the study. […] Blood samples were collected within 3 to 60 months of initiating TAM treatment.
Venous blood was collected from all 135 subjects before taking their daily 20- mg dose of TAM. Ten milliliters of heparin plasma were separated by centrifugation and immediately stored at −20°C until analysis. In addition, one milliliter of an EDTA blood sample was taken for subsequent DNA extraction and genotyping. DNA was isolated from peripheral leukocytes using a QIAamp DNA Blood Mini Kit® (Qiagen, Madrid, Spain) according to the manufacturer’s instructions. The DNA concentration was determined and adjusted to 2–20 ng/ µL.
TAM and its metabolites were separated and quantified by high-pressure liquid chromatography-tandem mass spectrometry using an Agilent HPLC 1200 system. HPLC experiments were performed using a binary pump G1312A, a G1316A column oven, G1379B degasser and an automatic injector H-ALS G1367B. Mobile phase A and phase B consisted of 0.1% formic acid in water and acetonitrile, respectively. Mobile phases A and B were pumped through a ZORBAX Eclipse XDB-C18 column (150 mm×2.1 mm I.D., 3.5 µm, Agilent USA) at a flow rate of 0.2 mL/min using the gradient shown in Table 1. Separation was conducted at 30°C. 15- µL aliquots were injected and the autosampler needle was rinsed in acetonitrile/water solution (1∶1). The total run time was 20 min. During the first 4.0 and last 2.0 min, the eluate was removed using a divert valve to avoid endogenous compounds entering the mass spectrometer.
As a detector, we used an A 6410 Triple Quadrupole mass spectrometer (Agilent Technologies, USA) equipped with a heated electrospray ionization source (Thermo Fisher Scientific, Waltham, MA, USA) operating in positive ion mode. For quantification, multiple reaction monitoring (MRM) chromatograms were acquired using Mass Hunter software version B.01.04 (Agilent Technologies, USA). Positive ions were created at atmospheric pressure. Quadrupoles operated at unit resolution (0.7 Da).
A 300- µL volume of 1% formic acid in acetonitrile containing internal standards was added to a 100- µL serum aliquot. After vortexing and centrifugation, the clear supernatant was transferred to a HybridSPE column (Supelco) and the eluents stored at 2–8°C until analysis. Samples were analyzed in triplicate.
Descriptive statistics were calculated using standard methods. Metabolic ratios were calculated as the concentration of substrate/concentration of metabolite. The non-normal distribution of data was confirmed by the Kolmogorov-Smirnov test. Levels of TAM, metabolites and ratios between genotype groups were compared using Wilcoxon-Mann-Whitney or Kruskal-Wallis tests. All statistical tests (two-sided) were performed using SPSS software (version 18.0 SPSS, Chicago, IL). Significance was set at a p<0.05.

[2] = all samples analyzed, n = 125, before daily 20 mg TAM dose

SMILES: CC/C(=C(\c1ccccc1)c1ccc(OCCNC)cc1)c1ccccc1 [N-desmethyl-tamoxifen]
- share of primary TAM oxidation (CYP3A4/5): 90%
- mean plasma concentration (±SD) [1, 2]: 450.54 ± 188.79 ng/mL
- median plasma concentration [1, 2]: 418.46 ng/mL
- mean concentration relative to the TAM concentration ([1]; all samples, n = 125): over 2 times
- plasma concentration, mean ±SD ([1]; genotype SULT1A1 *2/*2, n = 15): 459.42 ± 160.94 ng/mL
- plasma concentration, median ([1]; genotype SULT1A1 *2/*2, n = 15): 432.49 ng/mL
- plasma concentration, range ([1]; genotype SULT1A1 *2/*2, n = 15): (212.67–782.92) ng/mL
- plasma concentration, mean ±SD ([1]; genotype SULT1A1 wt/*2, n = 46): 441.63 ± 176.28 ng/mL
- plasma concentration, median ([1]; genotype SULT1A1 wt/*2, n = 46): 418.46 ng/mL
- plasma concentration, range ([1]; genotype SULT1A1 wt/*2, n = 46): (196.74–1191.13) ng/mL
- plasma concentration, mean ±SD ([1]; genotype SULT1A1 wt/wt, n = 60): 458.09 ± 209.96 ng/mL
- plasma concentration, median ([1]; genotype SULT1A1 wt/wt, n = 60): 411.53 ng/mL
- plasma concentration, range ([1]; genotype SULT1A1 wt/wt, n = 60): (35.96–1210.09) ng/mL
- plasma concentration, mean ±SD ([1]; genotype SULT1A2 *2/*2, n = 16): 453.17 ± 128.87 ng/mL
- plasma concentration, median ([1]; genotype SULT1A2 *2/*2, n = 16): 427.03 ng/mL
- plasma concentration, range ([1]; genotype SULT1A2 *2/*2, n = 16): (238.36–782.92) ng/mL
- plasma concentration, mean ±SD ([1]; genotype SULT1A2 *2/*3, n = 13): 478.66 ± 162.35 ng/mL
- plasma concentration, median ([1]; genotype SULT1A2 *2/*3, n = 13): 527.52 ng/mL
- plasma concentration, range ([1]; genotype SULT1A2 *2/*3, n = 13): (228.81–676.02) ng/mL
- plasma concentration, mean ±SD ([1]; genotype SULT1A2 *3/*3, n = 5): 478.49 ± 198.83 ng/mL
- plasma concentration, median ([1]; genotype SULT1A2 *3/*3, n = 5): 485.02 ng/mL
- plasma concentration, range ([1]; genotype SULT1A2 *3/*3, n = 5): (242.88–768.62) ng/mL
- plasma concentration, mean ±SD ([1]; genotype SULT1A2 wt/*2, n = 33): 478.01 ± 247.44 ng/mL
- plasma concentration, median ([1]; genotype SULT1A2 wt/*2, n = 33): 399.40 ng/mL
- plasma concentration, range ([1]; genotype SULT1A2 wt/*2, n = 33): (212.67–1210.09) ng/mL
- plasma concentration, mean ±SD ([1]; genotype SULT1A2 wt/*3, n = 16): 425.36 ± 207.64 ng/mL
- plasma concentration, median ([1]; genotype SULT1A2 wt/*3, n = 16): 324.21 ng/mL
- plasma concentration, range ([1]; genotype SULT1A2 wt/*3, n = 16): (167.40–952.85) ng/mL
- plasma concentration, mean ±SD ([1]; genotype SULT1A2 wt/wt, n = 38): 428.02 ± 162.17 ng/mL
- plasma concentration, median ([1]; genotype SULT1A2 wt/wt, n = 38): 413.16 ng/mL
- plasma concentration, range ([1]; genotype SULT1A2 wt/wt, n = 38): (35.96–847.98) ng/mL
- plasma concentration, mean ±SD ([1]; genotype SULT1E1 *2/*2, n = 5): 455.57 ± 104.52 ng/mL
- plasma concentration, median ([1]; genotype SULT1E1 *2/*2, n = 5): 497.51 ng/mL
- plasma concentration, range ([1]; genotype SULT1E1 *2/*2, n = 5): (311.12–550.12) ng/mL
- plasma concentration, mean ±SD ([1]; genotype SULT1E1 wt/*2, n = 28): 462.59 ± 167.53 ng/mL
- plasma concentration, median ([1]; genotype SULT1E1 wt/*2, n = 28): 426.41 ng/mL
- plasma concentration, range ([1]; genotype SULT1E1 wt/*2, n = 28): (196.74–768.62) ng/mL
- plasma concentration, mean ±SD ([1]; genotype SULT1E1 wt/wt, n = 88): 448.30 ± 202.82 ng/mL
- plasma concentration, median ([1]; genotype SULT1E1 wt/wt, n = 88): 399.40 ng/mL
